# Measurements taken from article PMC12115197, “Neuroprotective Potential of Tetraselmis chuii Compounds: Insights into Blood–Brain Barrier Permeability and Intestinal Transport” (Pharmaceuticals, 2025).
# Several values for one entry are separate records, joined by “and”; a condition that tells them apart may be missing. Equal values may be shown once. Entries after “also recorded” stand apart in the source; their conditions may differ. Marks after values point to notes of the source that are not given here.
# What was measured:
# HBMEC cells = test: Blood-brain barrier transport study (Transwell, UHPLC-q-TOF-MS); assay type: in vitro ADME, human; details: for Permeability / transport to the lower compartment in HBMEC cells, over the incubation times tested: OP-1 extract 40 µg mL−1, 2-24 h, time not specified (overall or maximum); for Te% ± SEM HBMEC Cells 2 h: OP-1 extract 40 µg mL−1, 2 h; for Te% ± SEM HBMEC Cells 2 h / Te% ± SEM HBMEC Cells 4 h / Te% ± SEM HBMEC Cells 24 h: Te = CLower/CUpper × 100; for Te% ± SEM HBMEC Cells 4 h: OP-1 extract 40 µg mL−1, 4 h; for Te% ± SEM HBMEC Cells 24 h: OP-1 extract 40 µg mL−1, 24 h
# Experimental: The HBMEC cell line was used as a simplified in vitro model of the BBB endothelium. For this, cells were seeded at a density of 1.6 × 10^5 cells/cm^2 into 12-well Transwell® plates (0.4 μm pore, Corning Costar Corp., Corning, NY, USA) coated with rat tail collagen-I (100 μg mL^−1). Medium was changed every second day until a monolayer was formed (10 days), and the transport studies were initiated.
# Medium containing 0.4% ethanol was used as the control group, and the lower chamber was filled with 1.5 mL of medium. The cells were incubated under these conditions for 2, 4, and 24 h. After incubation time, cell culture medium from both the upper and lower compartments was collected, dried using a freeze dryer (Martin Christ, Osterode am Harz, Germany), and stored at −80 °C until the chemical characterization was performed to assess the transport efficiency of the bioactive compounds.
# (§1) The transport efficiency of bioactive compounds across the cell layer (Te) was calculated using the Equation (1) proposed by Pogačnik et al. (2016):Te = CLower/CUpper × 100%(1)
# (§2) This calculation was performed to understand whether the compound crosses the cell layer and how efficiently it is transported. Here, CLower represents the relative concentration (peak area) of the compound in the lower compartment, and CUpper represents the relative concentration (peak area) of the compound in the upper compartment.
# (§3) Obtained samples from the transport assays performed in HBMEC and Caco-2 cells were extracted to recover and concentrate the bioactive compounds in the upper and lower compartments and to prevent possible interferences of the cell culture medium in the analyses. Briefly, dried samples were resuspended in 0.5 mL of H2O and mixed with vortex for 10 s. Then, 0.5 mL of AcOEt was added, mixed with vortex for 10 s, and centrifuged at 14,000 rpm for 5 min. After centrifugation, the supernatant (AcOEt) was carefully transferred to a 1.5 mL Eppendorf tube and dried in a SpeedVac (SPD1030, Thermo Fisher Scientific) device at 40 °C and 13 mbar pressure. Finally, the dried extracts were resuspended in 25 μL of pure ethanol for their subsequent analysis.
# (§4) The analysis of the obtained samples from HBMEC cells, Caco-2 cells, and PAMPA-BBB experiments was carried out using the same conditions and instrumentation as in our previous study. Briefly, 10 μL of each sample was injected into an Agilent 1290 UHPLC system equipped with a DAD detector and coupled to an Agilent 6540 q-TOF/MS equipped with an orthogonal atmospheric pressure chemical ionization (APCI) source, all from Agilent Technologies (Santa Clara, CA, USA). Carotenoids were separated using a Thermo Fisher Scientific Accucore C30 column (2.6 μm, 4.6 × 50 mm), applying a flow rate of 0.8 mL min^−1 at 30 °C. Methanol/MTBE/water (90:7:3%) and methanol/MTBE (10:90%) were used as mobile phases, and the chromatographic gradient started with 0%B, changing it to 100%B within 12 min. This was kept constant for 1.5 min before returning to the initial conditions.
# (§5) The results were processed using the Agilent Mass Hunter Qualitative software (version B.10.0). A peak intensity threshold of 5000 (nearly 4 times the noise signal) in the upper compartments was applied to obtain reliable and accurate results, and a relative quantification was performed. Peaks below this threshold value were excluded from the analysis.
# Caco-2 cells = test: Intestinal transepithelial transport study (Transwell, UHPLC-q-TOF-MS); assay type: in vitro ADME, human; details: for Permeability / transport to the lower compartment in Caco-2 cells, over the incubation times tested: OP-1 extract 40 µg mL−1, 2-24 h, time not specified (overall or maximum); for Te% ± SEM Caco-2 Cells 2 h: OP-1 extract 40 µg mL−1, 2 h; for Te% ± SEM Caco-2 Cells 2 h / Te% ± SEM Caco-2 Cells 4 h / Te% ± SEM Caco-2 Cells 24 h: Te = CLower/CUpper × 100; for Te% ± SEM Caco-2 Cells 4 h: OP-1 extract 40 µg mL−1, 4 h; for Te% ± SEM Caco-2 Cells 24 h: OP-1 extract 40 µg mL−1, 24 h
# Experimental: as §1, §2
# Caco-2 cells were grown according to the protocol described by Rojo-Poveda et al. (2020) to evaluate the intestinal permeability. Briefly, Caco-2 cells were seeded into inserts (0.4 μm pore, Corning Costar Corp., Corning, NY, USA) in 12-well plates. Then, 0.5 mL of complete DMEM culture medium containing approximately 300,000 cells was applied to the apical surface (AP) of each insert, and 1.5 mL of the same culture medium was added to the basolateral side (BL). Cells were allowed to grow for 21 days to differentiate and form a monolayer, changing the culture medium every 2–3 days.
# The Caco-2 transport studies were performed using the same procedures as for HBMEC experiments (described in Section 4.5.2 and Section 4.5.3), but using DMEM as cell culture medium and recording TEER measurements.
# as §3, §4, §5
# [1] = Neuroprotection against L-glutamate-induced toxicity in SH-SY5Y cells (MTT); details: human
# Experimental: Then, the viability was determined by the MTT assay as below. At the end of the 24 h incubation period, the medium was removed, and 0.5 mg mL^−1 MTT solution was added to each well. The cells were incubated at 37 °C for 3 h. At the end of the incubation, MTT was carefully removed, and formazan crystals in the wells were dissolved by adding 100 µL of DMSO. The absorbance of the solution was measured by a plate reader at 570 nm wavelength. Cell viability was calculated by comparing the absorbance values of treated cells with the control group (ethanol-treated cells). […] All the experiments were performed in triplicate.
# In the control group, DMEM/F12 cell medium supplemented with 1% FBS, 100 U mL^−1 penicillin, 100 μg mL^−1 streptomycin, 250 ng mL^−1 antimycotic, and 0.4% ethanol was used. […] Cell viability was assessed by MTT assay at the end of the experiments. All the experiments were repeated three times.
# [2] = tested on: differentiated SH-SY5Y cells; test: Neuroprotection against H2O2-induced toxicity in SH-SY5Y cells (MTT); assay type: cell-based, human; details: H2O2 65 µM, 24 h
# Experimental: All the experiments were performed in triplicate.
# All the experiments were repeated three times.
Molecule,"Permeability / transport to the lower compartment in HBMEC cells, over the incubation times tested (HBMEC cells)",Te% ± SEM HBMEC Cells 24 h (HBMEC cells),"Permeability / transport to the lower compartment in Caco-2 cells, over the incubation times tested (Caco-2 cells)",also measured
CC1=C(C#C/C(C)=C/C=C/C(C)=C/C=C/C=C(C)/C=C/C=C(C)/C=C/C2=C(C)CCCC2(C)C)C(C)(C)C[C@H](O)C1 [Crocoxanthin],≈ 3% and 3%,2.7 ± 0.6 ^a %,≈ 12% and 12.1%,Te% ± SEM HBMEC Cells 2 h (HBMEC cells): 3.4 ± 3.2 ^a %; Te% ± SEM HBMEC Cells 4 h (HBMEC cells): 0.9 ± 0.3 ^b %; Te% ± SEM Caco-2 Cells 2 h (Caco-2 cells): 12.0 ± 9.5 ^a %; Te% ± SEM Caco-2 Cells 4 h (Caco-2 cells): 11.8 ± 5.6 ^a %; Te% ± SEM Caco-2 Cells 24 h (Caco-2 cells): 12.1 ± 1.5 ^a %
CC1=C(C#C/C(C)=C/C=C/C(C)=C/C=C/C=C(C)/C=C/C=C(C)/C=C/C2=C(C)C[C@@H](O)CC2(C)C)C(C)(C)C[C@H](O)C1 [Diatoxanthin],8.1%,8.1 ± 3.4 ^a %,4.4%,Te% ± SEM HBMEC Cells 4 h (HBMEC cells): 1.1 ± 0.1 ^b %; Te% ± SEM HBMEC Cells 4 h (HBMEC cells; listed as diatoxanthin): 1.1%; Te% ± SEM HBMEC Cells 24 h (HBMEC cells; listed as diatoxanthin): 8.1%; Te% ± SEM Caco-2 Cells 2 h (Caco-2 cells): 1.4 ± 0.1 ^c %; Te% ± SEM Caco-2 Cells 2 h (Caco-2 cells; listed as diatoxanthin): 1.4%; Te% ± SEM Caco-2 Cells 4 h (Caco-2 cells): 2.3 ± 0.3 ^b %; Te% ± SEM Caco-2 Cells 24 h (Caco-2 cells): 4.4 ± 0.9 ^a %; Te% ± SEM Caco-2 Cells 24 h (Caco-2 cells; listed as diatoxanthin): 4.4%
C\C(C=C=C1C(C)(C)C[C@H](O)C[C@@]1(C)O)=C/C=C/C(C)=C/C=C/C=C(C)/C=C/C=C(\C)C(=O)C[C@@]12O[C@]1(C)C[C@@H](O)CC2(C)C [Fucoxanthinol],,18.94% and 18.9 ± 2.3 ^a %,,Te% ± SEM HBMEC Cells 2 h (HBMEC cells): 4.41% and 4.4 ± 1.1 ^c %; Te% ± SEM HBMEC Cells 2 h (HBMEC cells; listed as fucoxanthinol): 4.4%; Te% ± SEM HBMEC Cells 4 h (HBMEC cells): 5.13% and 5.1 ± 0.1 ^b %; Te% ± SEM Caco-2 Cells 2 h (Caco-2 cells): 7.01% and 7.0 ± 0.2 ^c %; Te% ± SEM Caco-2 Cells 2 h (Caco-2 cells; listed as fucoxanthinol): 7.0%; Te% ± SEM Caco-2 Cells 4 h (Caco-2 cells): 8.63% and 8.6 ± 2.2 ^b %; Te% ± SEM Caco-2 Cells 24 h (Caco-2 cells): 18.36% and 18.4 ± 7.2 ^a %
N[C@@H](CCC(=O)O)C(=O)O [L-glutamate],,,,"viability at 24 h, 23 mM [1]: 47%"
CC(=C/C=C/C(C)=C/C=C/C=C(C)/C=C/C=C(\C)C=C=C1C(C)(C)C[C@H](O)C[C@@]1(C)O)/C=C/[C@@]12O[C@]1(C)C[C@@H](O)CC2(C)C [Neoxanthin],13.2%,13.2 ± 4.3 ^a %,≈ 0.6% and 0.6%,Te% ± SEM HBMEC Cells 4 h (HBMEC cells): 1.4 ± 0.2 ^b %; Te% ± SEM HBMEC Cells 4 h (HBMEC cells; listed as neoxanthin): 1.4%; Te% ± SEM HBMEC Cells 24 h (HBMEC cells; listed as neoxanthin): 13.2%; Te% ± SEM Caco-2 Cells 2 h (Caco-2 cells): 0.5 ± 0.3 ^b %; Te% ± SEM Caco-2 Cells 4 h (Caco-2 cells): 0.4 ± 0.1 ^b %; Te% ± SEM Caco-2 Cells 24 h (Caco-2 cells): 0.6 ± 0.4 ^a %
C=C1C[C@@H](O)CC(C)(C)[C@]1(O)CC(=O)/C(C)=C/C=C/C(C)=C/C=C/C=C(C)/C=C/C=C(C)/C=C/[C@H]1C(C)=C[C@H](O)CC1(C)C [Prasinoxanthin],,8.9 ± 2.3%,could not be detected; also recorded: could not pass through the intestinal epithelium,
CC(/C=C/C=C(C)/C=C/[C@@]12O[C@]1(C)C[C@@H](O)CC2(C)C)=C\C=C\C=C(C)\C=C\C=C(C)\C=C\[C@@]12O[C@]1(C)C[C@@H](O)CC2(C)C [Violaxanthin],,13.9 ± 6.0%,could not be detected; also recorded: could not pass through the intestinal epithelium,
CC1=C(/C=C/C(C)=C/C=C/C(C)=C/C=C/C=C(C)/C=C/C=C(C)/C=C/[C@@]23O[C@]2(C)C[C@@H](O)CC3(C)C)C(C)(C)C[C@H](O)C1 [antheraxanthin],could not be detected in the lower compartment,,could not be detected in the lower compartment,
CC1=C(C#C/C(C)=C/C=C/C(C)=C/C=C/C=C(C)/C=C/C=C(C)/C=C/[C@@]23O[C@]2(C)C[C@@H](O)CC3(C)C)C(C)(C)C[C@H](O)C1 [diadinoxanthin],could not be detected in the lower compartment,,could not be detected in the lower compartment,
CC1=CCCC(C)(C)C1/C=C/C(C)=C/C=C/C(C)=C/C=C/C=C(C)/C=C/C=C(C)/C=C/C1=C(C)CCCC1(C)C (stereo not drawn) [α-carotene],could not be detected in the lower compartment,,could not be detected in the lower compartment,
CC1=C(/C=C/C(C)=C/C=C/C(C)=C/C=C/C=C(C)/C=C/C=C(C)/C=C/C2=C(C)CCCC2(C)C)C(C)(C)CCC1 [β-carotene],could not be detected in the lower compartment,,could not be detected in the lower compartment,
echinenone I,could not be detected in the lower compartment,,could not be detected in the lower compartment,
echinenone II,could not be detected in the lower compartment,,could not be detected in the lower compartment,
hydrogen peroxide [H2O2],,,,"Cell viability compared to control group, neurotoxic agent alone [2]: 48%"
zeaxanthin/lutein,could not be detected in the lower compartment,,could not be detected in the lower compartment,
